# Measured values published in US6281222A (Inotek Corporation, priority 2000, dated 2001).
# “Also recorded” adds a separate entry of the source.
# Tests used:
# [1] = Survival after severe acetaminophen intoxication, fasted 36 hours (FIG. 3); assay type: in vivo, mice; conditions: mouse, in vivo, ip; 350 mg/kg i.p., fasted 36 hours, by 8 hours
# [2] = system: acetaminophen-intoxicated mice; experiment: as above; assay type: in vivo
# [3] = system: acetaminophen-induced mortality; experiment: Dose response survival study; assay type: in vivo; conditions: for protective effect / survival: 24 hours; for survival rate: vehicle 25%; for survival: vehicle 0%
# Procedure: The minimally effective dose of AHPP was examined. Criteria for an effective dose included ability to suppress liver injury and protect against acetaminophen-induced mortality. […] Although the effect was only partial, ALT levels were reduced by 56±16% (n=8; p<0.05).
# In order to validate the significance of the above mentioned reductions in serum transaminases, a dose response survival study was also performed. […] Survival rate was 25% in the vehicle treated group, and improved to 87% with 3 mg/kg and 10 mg/kg q8h doses. […] For the survival studies, n=8-10 animals per group. […] The effective dose range lays between 10 and 50 mg/kg of AHPP q8h per enteral gavage.
# [4] = system: acetaminophen-induced liver injury; experiment: Minimally effective AHPP dose: reduction in serum ALT; assay type: in vivo
# [5] = system: acetaminophen-induced liver injury; experiment: Plasma ALT and AST release after acetaminophen, with simultaneous AHPP treatment (FIGS. 1A and 1B); assay type: in vivo, rats; conditions: AHPP 50 mg/kg q8h per gavage, simultaneous with acetaminophen 350 mg/kg i.p.
# Procedure: The effect of AHPP on the release of ALT and AST in plasma was examined. […] The effect of AHPP is measured by the release of AST and ALT in rats.
# [6] = system: liver tissues (centrilobular injury); experiment: Histological injury score in the liver; assay type: in vivo, rats
# Procedure: Scoring was performed by two independent investigators who were blinded to the treatment regimen. The following grading system was used: 0--normal liver, no signs of injury; 1--rare areas of centrilobular injury; 2--moderate injury involving many centrilobular areas; 3--extensive centrilobular necrosis; 4--massive hepatic injury involving all centrilobular areas and beyond.
# [7] = system: acetaminophen-induced increases in ALT plasma levels; experiment: Serum/plasma ALT levels with different frequencies and starting points of AHPP or NAC treatment (FIG. 2); assay type: in vivo, rats
# From the text: The effectiveness of AHPP when given at various frequencies and starting points of administration was also examined. […] Serum ALT levels in rats were then examined
# The bars from the left to the right represent the following groups: […]
# [8] = Preliminary toxicity study, enteral administration; assay type: in vivo, mice; conditions: enteral gavage up to 1000 mg/kg (300, 500, 1000 mg/kg), 24 h, n=8 per group
# Procedure: Preliminary toxicity studies were performed with AHPP to estimate the expected therapeutic ratio of the compound.
# [9] = 50 mg/kg enterally, 4 h post-acetaminophen
smiles,measurement,setting,value
"CC(=O)Nc1ccc(O)cc1 [acetaminophen, reference compound]",mortality at 8 h,[1],75%
same,onset of lethality,"[2]; 350 mg/kg i.p., fasted 36 hours",2 h
"Nc1nc(O)nc2[nH]ncc12 [AHPP, 4-Amino-6-hydroxypyrazolo[3,4-d]pyrimidine]",protective effect,[3]; 3 mg/kg q8h,lost its protective effect
same,survival rate,"[3]; 3 mg/kg q8h enteral gavage, 8 hours",87%
same,survival,[3]; 3 mg/kg q8h enteral gavage,0%
same,protective effect,[3]; 10 mg/kg q8h,maintained its protective effect
same,survival rate,"[3]; 10 mg/kg q8h enteral gavage, 8 hours",87%
same,survival,[3]; 10 mg/kg q8h enteral gavage,63%
same,protection against mortality,"[3]; 3 and 10 mg/kg q8h enteral gavage, 8 hours",significantly protected against mortality
same,protective effect,[4]; 3 mg/kg q8h per enteral gavage,significant protection
same,reduction in ALT levels,"[4]; 3 mg/kg q8h per enteral gavage, n=8, p<0.05",56±16%
same,efficacy relative to 50 mg/kg dose,[4]; 10 mg/kg q8h per enteral gavage,equivalent in efficacy to the 50 mg/kg dose
same,reduction in serum ALT concentration,"[4]; 10 mg/kg q8h per enteral gavage, n=7, p<0.01",89%
same,protection / survival,"[2]; AHPP 30 mg/kg q8h gavage, simultaneous with acetaminophen 350 mg/kg i.p.",markedly protective; also recorded: dramatically prolonged survival
same,"degree of liver injury, as assessed by release of ALT and AST",[5],significantly reduced the degree of liver injury
same,median histological injury score,"[6]; AHPP+Acetaminophen, scale 0 (normal liver) to 4 (massive hepatic injury), p<0.05",2.1
same,histological injury in the liver,"[6]; response to AHPP treatment, in words",significant attenuation of the histological injury
same,"protective effect, 8 h+16 h",[7]; 50 mg/kg enteral gavage at 8 h and 16 h post-acetaminophen,significant protective effects
same,"effect on ALT levels, 4 h post-treatment","[7]; 50 mg/kg enterally, 4 h post-acetaminophen, no supplemental doses",reduced
same,ALT levels vs acetaminophen alone,"[7]; concurrent with, or subsequent to acetaminophen",lowered ALT levels
same,enteral uptake,"[7]; inferred from efficacy via gavage, 24 h protocol",sufficient enteral uptake
same,effect of timing and frequency of administration,"[7]; start close in time to acetaminophen, followed by additional treatments at 8 h interval",most effective
same,"hepatoprotection, conclusion",[7]; summary of data,advantageously compares to NAC as a hepatoprotective agent; also recorded: effective via an enteral delivery route; also recorded: effective both as a co-treatment and in delayed post-treatment regimens
same,mortality or behavioral or histological alterations,[8],did not result in mortality or behavioral or histological alterations
"CC(=O)N[C@@H](CS)C(=O)O [N-acetyl-cysteine, reference compound]","protective effect, co-treatment (0 h)",[7]; 50 mg/kg enterally at time of acetaminophen injection,significantly protective
same,"degree of liver injury, 4 h post-treatment",[7]; [9],exacerbated the degree of liver injury
same,"protective effect, 4 h post-treatment",[7]; [9],lost its protective effect
